From patent US20070197591A1, “USE OF PALIPERIDONE FOR THE TREATMENT OF A MENTAL DISORDER IN A PSYCHIATRIC PATIENT WITH REDUCED HEPATIC FUNCTION” (priority 2005, published 2007)
Where two headings read alike, the source gives them in different places.

Assay: Single-dose pharmacokinetics of IR paliperidone in subjects with moderate hepatic impairment vs normal hepatic function
Type: in vivo, human
Details: for CL renal / AUC(0-inf) / half-life / Tmax / Cmax: both sexes, human, 1 mg; for CL renal: plasma and urine; for AUC(0-inf) / half-life / Tmax / Cmax: plasma; for half-life: read-out: t1/2 (terminal half-life) (converted); for Tmax: read-out: tmax, median (range); for Ae, % dose: urine
Excerpt: Objectives: The primary objective of this study was to investigate the single-dose pharmacokinetics of immediate-release (IR) paliperidone, after oral administration, in subjects having moderate hepatic impairment (“hepatically-impaired subjects”) compared with subjects having normal hepatic function (“healthy subjects”). The secondary objective was to document the plasma protein binding and disposition of the enantiomers of paliperidone. In addition, the tolerability and safety profile of IR paliperidone was compared between hepatically impaired subjects and healthy subjects. Methodology: This was a single-dose, parallel-group, open-label, single-center, Phase I study of IR paliperidone in subjects having either normal or moderately impaired hepatic function. The groups, consisting of 10 subjects each, were demographically matched with respect to age, weight, sex, and ethnicity. The study consisted of a screening period of up to 3 weeks and an open-label, single-dose treatment period (Days 1 through 5). On Day 1, a single dose of 1 mg IR paliperidone oral solution was administered after a fast of at least 10 hours; subjects continued to fast for 4 hours following study drug administration. The 96-hour follow-up consisted of serial sample collection of blood and urine for pharmacokinetic analysis and safety and tolerability assessments. Subjects remained confined to the study site through the 72-hour pharmacokinetics sampling, and consumed standard institutional meals while in the study site. Subjects were released after the 72-hour sampling, then returned to the study site on Day 5 before the 96-hour pharmacokinetics sampling: end-of-study procedures were performed immediately hereafter. A blood sample for DNA isolation was collected to allow for genetic analysis as necessary. Diagnosis and Main Criteria for Inclusion: The study was conducted in men and women, aged 18 through 75 years, inclusive. One group of subjects had moderate hepatic impairment, with stable hepatic disease, a total Child-Pugh score of between 7 and 9, inclusive, and blood pressure that was controlled and stable on antihypertensive agents; the other group had normal hepatic function. Test Product, Dose and Mode of Administration, Batch No: 1 mg IR paliperidone (R076477) oral solution; batch 04C29/[…]. Criteria for Evaluation: Pharmacokinetics: Plasma and urine concentrations of the paliperidone enantiomers (+) R078543 and (-) R078544 were determined using an LC-MS/MS method. Concentrations of paliperidone were calculated as the sum of the enantiomer concentrations. In addition, serum and urine concentrations of creatinine were determined for the calculation of CLCR. The protein binding and unbound fraction was determined for the 2 paliperidone enantiomers. The unbound fraction for paliperidone was calculated. Based on the actual pharmacokinetic blood sampling times and actual urine collection periods, the following plasma and urine pharmacokinetic parameters were determined for paliperidone and its enantiomers: Cmax, tmax, tlast, AUClast, λZ, t1/2, AUC∞, % AUC∞,ex, CL/F, AUC∞+/- ratio, Ct+/- ratio per time point, unbound AUC∞, unbound CL/F or unbound CL (if relevant), Ae (per collection interval and overall), Ae,% dose, Excr. Rate, […], and CLNR. Pharmacokinetics: Descriptive statistics were evaluated for the plasma concentrations at each sampling time, and for all pharmacokinetic parameters of paliperidone and its enantiomers for each hepatic function group Graphical exploration of the paliperidone and enantiomer plasma concentrations and urine data, and the derived pharmacokinetic parameters, was performed. In addition, the enantiomer disposition was compared between the groups. Log-transformed PK parameters were fit to a general linear model with hepatic function grip as fixed effect.

[1] = Hepatically-Impaired Subjects, Total
[2] = Hepatically-Impaired Subjects, Unbound
[3] = oral, Healthy Subjects, Unbound
[4] = oral, Hepatically-Impaired Subjects, Total
[5] = oral, Hepatically-Impaired Subjects, Unbound

For `Cc1nc2n(c(=O)c1CCN1CCC(c3noc4cc(F)ccc34)CC1)CCCC2O` (centres unmarked) [Paliperidone, paliperidone], the CL/F (Healthy Subjects, Total) was 106 ± 34.9 mL/min, the CLNR (Healthy Subjects, Total) was 54.4 ± 23.7 mL/min and the Vdz (Healthy Subjects, Total) was 211 ± 59.6 L. The CL/F (Healthy Subjects, Unbound) was 370 ± 67.1 mL/min, the CLNR (Healthy Subjects, Unbound) was 188 ± 56.8 mL/min and the Vdz (Healthy Subjects, Unbound) was 748 ± 144 L. For the same compound, the CL/F [1] was 143 ± 43.4 mL/min, the CLNR [1] was 75.1 ± 16.2 mL/min and the Vdz [1] was 311 ± 65.2 L. For the same compound, the CL/F [2] was 386 ± 99.3 mL/min, the CLNR [2] was 205 ± 30.7 mL/min and the Vdz [2] was 857 ± 146 L. The “clearance and volume of distribution between the groups” value (based on unbound concentrations) was “comparable”, the “Active renal clearance as share of the renal clearance” value (both groups) was “approximately 45%” and the “median time to reach maximum plasma concentration” value (both groups) was “around 1 hour”. It also gave a CL renal (oral, Healthy Subjects, Total, read-out: CLR) of 51.2 ± 13.4 mL/min, a CL renal (oral, Hepatically-Impaired Subjects, Total, read-out: CLR) of 67.4 ± 34 mL/min and a CL renal (oral, healthy subjects (second value of '67.4 vs. 51.2'), read-out: Renal clearance) of 51.2 mL/min. For the same compound, the CL renal (oral, hepatically-impaired subjects (first value of '67.4 vs. 51.2'), read-out: Renal clearance) was 67.4 mL/min, the AUC(0-inf) (oral, Healthy Subjects, Total) was 176 ± 64.4 ng·h/mL and the half-life (oral, Healthy Subjects, Total) was 1420 min. It also gave a Tmax (oral, Healthy Subjects, Total) of 1 h, an AUC(0-inf) [3] of 45.8 ± 8.72 ng·h/mL and a Cmax [3] of 1.81 ± 0.292 ng/mL. The Tmax [3] was 1.25 h, the AUC(0-inf) [4] was 128 ± 42.5 ng·h/mL and the Cmax [4] was 4.57 ± 1.05 ng/mL. It also gave a half-life [4] of 1590 min, a Tmax [4] of 1.25 h and an AUC(0-inf) [5] of 45.7 ± 12.6 ng·h/mL. The Cmax [5] was 1.59 ± 0.318 ng/mL, the Tmax [5] was 1.25 h and the Cmax (po, Healthy Subjects, Total, 1 mg IR oral solution) was 7.14 ± 2.28 ng/mL. For the same compound, the “dose excreted unchanged into urine” value (did not differ between the groups) was “Approximately 50%”, the “CL/F higher in hepatically-impaired compared with healthy subjects” value (total) was “about 35%” and the “volume of distribution higher in hepatically-impaired compared with healthy subjects” value (total Paliperidone) was 47%. The “exposure (Cmax, AUC∞) between hepatic function groups after correction for unbound fraction” value (unbound) was “comparable”, the “AUC∞ lower in hepatically-impaired compared with healthy subjects” value (unbound fraction) was “approximately 5%” and the “Cmax lower in hepatically-impaired compared with healthy subjects” value (unbound fraction) was “approximately 12%”. For the same compound, the “Ae, % dose” value (Healthy Subjects) was 50.1 ± 7.94 % dose and the “Ae, % dose” value (Hepatically-Impaired Subjects) was 44.7 ± 10.62 % dose.
